Experimental data reported in article PMC8122087 (Cell, 2021).
“Also recorded” adds a separate entry of the source. Counter-ions that a name gives are not always drawn. Like-named read-outs stand apart in the source and are kept apart here.

Columns and labels:
[1] = molecular target: T1, psychLight2 (PSYLI2 cells) (Homo sapiens, UniProt P28223, DEL264-312/E264Q/I181A/I315S/INS316[…]/S314L); assay type: cell-based
head-twitch response = test: Head-twitch response; assay type: in vivo, mouse
psychLight2 [2] = assay type: cell-based, mouse
[3] = molecular target: psychLight1 (human 5-HT2AR-based fluorescent sensor) (Homo sapiens, UniProt P28223, DEL264-312/E264Q/I181A/I315S/INS316[…]/S314L); assay type: cell-based
Chain of psychLight1 (human 5-HT2AR-based fluorescent sensor) (P28223 1-471 with tags or gaps with the stated changes): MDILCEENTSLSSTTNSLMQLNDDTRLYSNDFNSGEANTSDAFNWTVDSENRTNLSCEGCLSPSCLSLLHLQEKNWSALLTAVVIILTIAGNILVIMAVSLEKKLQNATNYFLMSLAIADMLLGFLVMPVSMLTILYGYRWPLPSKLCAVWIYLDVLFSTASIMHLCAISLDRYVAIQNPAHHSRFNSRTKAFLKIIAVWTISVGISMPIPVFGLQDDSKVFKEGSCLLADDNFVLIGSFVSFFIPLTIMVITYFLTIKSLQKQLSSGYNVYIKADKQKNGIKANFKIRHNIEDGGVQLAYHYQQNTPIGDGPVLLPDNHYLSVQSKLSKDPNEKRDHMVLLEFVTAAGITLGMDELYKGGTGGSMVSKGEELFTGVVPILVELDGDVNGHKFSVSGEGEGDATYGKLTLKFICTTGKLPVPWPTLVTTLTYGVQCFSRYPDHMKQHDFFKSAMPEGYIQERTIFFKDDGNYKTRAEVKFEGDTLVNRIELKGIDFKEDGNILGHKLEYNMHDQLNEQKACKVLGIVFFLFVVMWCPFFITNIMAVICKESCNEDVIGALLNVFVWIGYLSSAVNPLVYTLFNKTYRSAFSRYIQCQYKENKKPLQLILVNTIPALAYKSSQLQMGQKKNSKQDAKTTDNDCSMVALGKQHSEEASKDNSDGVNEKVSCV

[4] = molecular target: psychLight2 (HEK293T cell line stably expressing psychLight2, PSYLI2) (Homo sapiens, UniProt P28223, DEL264-312/E264Q/I181A/I315S/INS316[…]/S314L); test: PSYLI2 high-content imaging assay, agonist mode; assay type: cell-based
Chain of psychLight2 (HEK293T cell line stably expressing psychLight2, PSYLI2) (P28223 1-471 with tags or gaps with the stated changes): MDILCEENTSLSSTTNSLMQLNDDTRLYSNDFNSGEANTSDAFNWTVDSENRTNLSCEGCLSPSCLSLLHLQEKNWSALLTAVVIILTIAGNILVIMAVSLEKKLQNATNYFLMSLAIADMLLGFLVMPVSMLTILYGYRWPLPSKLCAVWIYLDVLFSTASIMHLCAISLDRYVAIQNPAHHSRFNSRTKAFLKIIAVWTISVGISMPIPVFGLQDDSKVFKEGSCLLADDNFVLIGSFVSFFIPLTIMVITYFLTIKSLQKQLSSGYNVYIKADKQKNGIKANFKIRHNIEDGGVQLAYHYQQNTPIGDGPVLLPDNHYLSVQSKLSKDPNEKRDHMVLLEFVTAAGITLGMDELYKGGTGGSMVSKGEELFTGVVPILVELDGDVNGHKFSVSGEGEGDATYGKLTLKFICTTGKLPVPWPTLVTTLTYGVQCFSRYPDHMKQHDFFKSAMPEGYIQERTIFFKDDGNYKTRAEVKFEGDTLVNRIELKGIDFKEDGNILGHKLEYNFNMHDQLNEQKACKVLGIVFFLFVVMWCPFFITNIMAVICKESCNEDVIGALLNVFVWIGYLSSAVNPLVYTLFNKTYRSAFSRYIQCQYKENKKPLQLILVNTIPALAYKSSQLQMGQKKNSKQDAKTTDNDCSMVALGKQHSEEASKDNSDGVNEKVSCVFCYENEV

psychLight2 [5] = molecular target: psychLight2 (Homo sapiens, UniProt P28223, DEL264-312/E264Q/I181A/I315S/INS316[…]/S314L); details: mouse
[6] = tested on: VMAT2 heterozygous (VMAT2-HET) and WT mice; test: Sucrose preference test; assay type: in vivo, mouse; details: 15 mg/kg i.p., single administration
locomotion = test: Locomotion assay; assay type: in vivo, mouse; details: C57BL/6J mice, i.p., n = 4 mice
C57BL/6J mice = test: Forced swim test; assay type: in vivo, mouse
[7] = tested on: cultured rat embryonic cortical neurons; test: Dendritogenesis in cultured rat embryonic cortical neurons; assay type: cell-based; details: Sholl analysis, Nmax
[8] = molecular target: T1, psychLight2 (PSYLI2 cells); assay type: cell-based; remark: listed apart in the source
[9] = tested on: endogenous 5-HT release (psychLight2 response); parameters: species or system mouse; details: electrical stimulation, incubation with 50 μM
[10] = C57BL/6J mice, i.p., dose-response, n = 4 mice
[11] = 10 μM compound treatment (Fig. 4C)

CN(C)CCc1c[nH]c2ccc(Br)cc12 [5-Br-DMT, 5-bromo-N,N-dimethyltryptamine]
ligand score [1]: negative
head-twitch response (head-twitch response; [10]): failed to induce HTRs at any dose

CN(C)CCc1c[nH]c2ccc(Cl)cc12 [5-Cl-DMT, 5-chloro-N,N-dimethyltryptamine]
ligand score [1]: positive
head-twitch response (head-twitch response; [10]): produced robust HTRs

CN(C)CCc1c[nH]c2ccc(F)cc12 [5-F-DMT, 5-flouo-N,N-dimethyltryptamine]
ligand score [1]: positive
head-twitch response (head-twitch response; mouse, in vivo, ip): produced robust HTRs

NCCc1c[nH]c2ccc(O)cc12 [5-HT, serotonin]
ΔpL2/tdT (psychLight2 [2]): 111.1 ± 1.8%
psychLight1 fluorescence response (ΔF/F) [3]: 77.3 ± 2.4%
PSYLI2 fluorescence ΔF/F [4]: 46.3 ± 1.4%
PSYLI2 response [4]: 44.8 ± 0.8%
psychLight2 fluorescence response (ΔF/F) [4]: 38.2 ± 2.4%

COc1ccc2[nH]cc(CCN(C)C)c2c1 [5-MeO-DMT, 5-methoxy-N,N-dimethyltryptamine]
psychLight2 fluorescence in vivo (psychLight2 [5]): sharp increase in fluorescence
Emax [3]: 48.4%
psychLight1 fluorescence response (ΔF/F) [3]: 48.4 ± 3.1%
psychLight2 fluorescence response (ΔF/F) [4]: 24.1 ± 4.6%
head-twitch response during fiber photometry (head-twitch response; 50 mg/kg, i.p., within 1 min of administration, n = 3 animals): concomitant increase in HTR

COc1ccc2c(CCN(C)C)c[nH]c2c1 [6-MeO-DMT, 6-methoxy-N,N-dimethyltryptamine]
competition with / block of 5-HT-induced activation of psychLight [3]: can compete off 5-HT resulting in a reduction in psychLight fluorescence; also recorded: capable of binding to the receptor despite lacking efficacy
psychLight1 fluorescence response (ΔF/F) ([3]; 10 μM, confocal microscope, n = 3): −1.1 ± 4.6%
psychLight2 fluorescence response (ΔF/F) ([4]; 10 μM, high content imager (Suppl. Fig. 3C)): −3.0 ± 2.7%

COc1ccc2c(ccn2C[C@@H](C)N(C)C)c1 [AAZ-A-154]
sucrose preference in WT mice [6]: did not modify sucrose preference in the WT animals
sucrose preference in VMAT2-HET mice ([6]; 1% sucrose): exhibited a sucrose preference that was indistinguishable from WT controls
persistence of anti-anhedonic effect ([6]; VMAT2-HET mice): at least 12 days
locomotion (locomotion): only decreases locomotion at a very high dose (100 mg/kg)
immobility in the forced swim test (C57BL/6J mice; 20 mg/kg i.p., single administration, n = 12): decreased immobility
onset and duration of antidepressant-like effects in FST (C57BL/6J mice; mouse, in vivo): both rapid (30 min) and long-lasting (1 week) antidepressant-like effects
dendritic arbor complexity [7]: increases dendritic arbor complexity to a comparable extent as the fast-acting antidepressant ketamine
head-twitch response (head-twitch response; [10]): failed to produce any head-twitches, even up to doses as high as 100 mg/kg

CN(C)CCc1c[nH]c2ccc(O)cc12 [BUFO, N,N-dimethylserotonin]
PSYLI2 fluorescence ΔF/F [4, 11]: 22.3 ± 2.8%

CN(C)CCc1c[nH]c2ccccc12 [DMT, N,N-dimethyltrytamine]
Emax [3]: 12.4%
EC50 ([3]; read-out: half maximal effective concentration (EC50)): 627 nM

CNCCc1c[nH]c2ccc(O)cc12 [N-5-HT, N-methylserotonin]
PSYLI2 fluorescence ΔF/F [4, 11]: 24.6 ± 1.7%

CP(C)C.F[P-](F)(F)(F)(F)F.F[P-](F)(F)(F)(F)F.NCCc1c[nH]c2ccc(O)cc12.[Ru+2].c1ccc(-c2ccccn2)nc1.c1ccc(-c2ccccn2)nc1 [RuBi–5-HT]
Tauoff (psychLight2 [2]): 5.4 ± 0.9 ms
peak ΔpL2/tdT normalized to baseline (psychLight2 [2]): 111.2 ± 0.7%

CN1CCc2cccc3c2[C@H]1Cc1ccc(O)c(O)c1-3 [apomorphine, R-(−)-apomorphine hydrochloride hemihydrate]
Schild regression analysis (pA2) [8]: potent psychLight competitive antagonists

CN(C)CCC[C@@]1(c2ccc(F)cc2)OCc2cc(C#N)ccc21 [escitalopram]
amplitude of the psychLight2 response ΔF/F [9]: 18.4 ± 4.3%

O=C(c1ccc(F)cc1)C1CCN(CCn2c(=O)[nH]c3ccccc3c2=O)CC1 [ketanserin]
psychLight2 fluorescence in vivo (psychLight2 [5]): decreased
competition with / block of 5-HT-induced activation of psychLight [3]: able to block 5-HT-induced activation of psychLight
effect on psychLight1 fluorescence [3]: either had minimal effect on psychLight1 fluorescence or slightly quenched the sensor
psychLight1 fluorescence response (ΔF/F) [3]: −1.7 ± 0.3%
PSYLI2 response [4]: −12.7 ± 0.5%
psychLight2 fluorescence response (ΔF/F) [4]: −3.5 ± 1.6%

c1ccc(C2(N3CCCCC3)CCCCC2)cc1 [phencyclidine]
ligand score [1]: ~0

COC(=O)[C@@H]1C[C@H](OC(C)=O)C(=O)[C@H]2[C@@]1(C)CC[C@H]1C(=O)O[C@H](c3ccoc3)C[C@]21C [salvinorin A]
ligand score [1]: ~0

NCCc1c[nH]c2ccccc12 [tryptamine]
PSYLI2 fluorescence ΔF/F [4]: produces a robust response
